Measured values from BindingDB's records for doi:10.1021/jm0110901 (Carlsberg Laboratory, 2002).

target: Cysteine protease B CPB2.8ΔCTE (Leishmania mexicana); test: Inhibition of Leishmania mexicana Cysteine protease B (CPB2.8deltaCTE) was obtained in a solution-phase assay

Compound	Ki [µM]
CC[C@H](C)[C@H](NC(=O)[C@H](Cc1ccccc1)NC[C@H](Cc1ccccc1)NC(=O)[C@@H](NC(=O)[C@@H]1CCCN1C(=O)[C@@H](N)CCCCN)C(C)C)C(=O)N[C@@H](CC1CCCCC1)C(=O)O	13
CC[C@H](C)[C@H](NC[C@H](Cc1ccccc1)NC(=O)[C@H](Cc1cnc[nH]1)NC(=O)[C@H](CCC(N)=O)NC(=O)[C@@H](N)CC(=O)O)C(=O)N[C@H](C(=O)N[C@H](C(=O)N[C@@H](CCC(N)=O)C(=O)O)C(C)C)[C@@H](C)CC	30
CC[C@H](C)[C@H](NC(=O)[C@H](CC(C)C)NC[C@H](Cc1ccccc1)NC(=O)CNC(=O)[C@H](CCCCN)NC(=O)[C@@H](N)CC(=O)O)C(=O)N[C@H](C(=O)N[C@@H](CCCCN)C(=O)O)C(C)C	18.6
CC[C@H](C)[C@H](N)C(=O)N[C@H](C(=O)NCC(=O)N[C@H](CN[C@@H](Cc1ccc(O)cc1)C(=O)N[C@H](C(=O)N[C@H](C(=O)N[C@@H](C)C(=O)O)C(C)C)[C@@H](C)CC)Cc1ccccc1)[C@@H](C)O	53.3
CC[C@H](C)[C@H](NC(=O)[C@H](C)NC(=O)[C@@H](N)CC1CCCCC1)C(=O)N[C@H](CN[C@@H](Cc1ccc(O)cc1)C(=O)N[C@@H](CCSC)C(=O)N[C@@H](Cc1ccc(O)cc1)C(=O)N[C@@H](Cc1ccc(O)cc1)C(=O)O)Cc1ccccc1	0.1
CC[C@H](C)[C@H](NC(=O)[C@H](CCSC)NC(=O)[C@H](CO)NC(=O)[C@H](CC1CCCCC1)NC[C@H](Cc1ccccc1)NC(=O)[C@H](CC1CCCCC1)NC(=O)[C@H](CO)NC(=O)[C@@H](N)CC(=O)O)C(=O)O	10.1
CC[C@H](C)[C@H](NC[C@H](Cc1ccccc1)NC(=O)[C@H](Cc1c[nH]cn1)NC(=O)[C@H](CCCCN)NC(=O)[C@@H](N)CC(=O)O)C(=O)N[C@H](C(=O)N[C@H](C(=O)N[C@@H](CCCCN)C(=O)O)C(C)C)[C@@H](C)CC	20

Other lines, results leading:

Ki [µM]	Compound
5.3	CC[C@H](C)[C@H](N)C(=O)N[C@@H](CC(=O)O)C(=O)NCC(=O)N[C@@H](CCCCN)CN[C@@H](CC(C)C)C(=O)N[C@@H](Cc1ccc(O)cc1)C(=O)N[C@@H](C)C(=O)N1CCC[C@H]1C(=O)O [1-{2-[2-[2-(6-Amino-2-{2-[2-(2-amino-3-methyl-pentanoylamino)-3-carboxy-propionylamino]-acetylamino}-hexylamino)-4-methyl-pentanoylamino]-3-(4-hydroxy-phenyl)-propionylamino]-propionyl}-pyrrolidine-2-carboxylic acid]
6.5	CC[C@H](C)[C@H](NC(=O)[C@H](C)NC[C@H](Cc1ccccc1)NC(=O)[C@H](CCCNC(=N)N)NC(=O)[C@H](Cc1c[nH]c2ccccc12)NC(=O)[C@@H](N)CCSC)C(=O)N[C@H](C(=O)N[C@H](C(=O)O)[C@@H](C)O)[C@@H](C)CC [2-(2-{2-[2-(2-{2-[2-(2-Amino-4-methylsulfanyl-butyrylamino)-3-(1H-indol-3-yl)-propionylamino]-5-guanidino-pentanoylamino}-3-phenyl-propylamino)-propionylamino]-3-methyl-pentanoylamino}-3-methyl-pentanoylamino)-3-hydroxy-butyric acid]
100	CC[C@H](C)[C@H](N)C(=O)N[C@H](C(=O)N[C@H](C(=O)N[C@@H](CCCCN)CN[C@@H](C)C(=O)N[C@H](C(=O)N[C@@H](CC1CCCCC1)C(=O)N[C@H](C(=O)O)[C@@H](C)O)[C@@H](C)CC)[C@@H](C)O)C(C)C [2-(2-{2-[2-(6-Amino-2-{2-[2-(2-amino-3-methyl-pentanoylamino)-3-methyl-butyrylamino]-3-hydroxy-butyrylamino}-hexylamino)-propionylamino]-3-methyl-pentanoylamino}-3-cyclohexyl-propionylamino)-3-hydroxy-butyric acid]
71.6	CC[C@H](C)[C@H](NC(=O)[C@H](CC(C)C)NC[C@H](CCCNC(=N)N)NC(=O)CNC(=O)[C@H](CC1CCCCC1)NC(=O)[C@@H](N)C(C)C)C(=O)N[C@@H](Cc1cnc[nH]1)C(=O)N[C@@H](CC(=O)O)C(=O)O [2-[2-{2-[2-(2-{2-[2-(2-Amino-3-methyl-butyrylamino)-3-cyclohexyl-propionylamino]-acetylamino}-5-guanidino-pentylamino)-4-methyl-pentanoylamino]-3-methyl-pentanoylamino}-3-(3H-imidazol-4-yl)-propionylamino]-succinic acid]
31.1	C[C@H](NC[C@H](Cc1ccccc1)NC(=O)[C@H](CCCCN)NC(=O)[C@H](CCCCN)NC(=O)[C@@H](N)CC(=O)O)C(=O)N[C@@H](CC1CCCCC1)C(=O)NCC(=O)N[C@@H](CCCCN)C(=O)O [6-Amino-2-(2-{2-[2-(2-{6-amino-2-[6-amino-2-(2-amino-3-carboxy-propionylamino)-hexanoylamino]-hexanoylamino}-3-phenyl-propylamino)-propionylamino]-3-cyclohexyl-propionylamino}-acetylamino)-hexanoic acid]
6.3	CC[C@H](C)[C@H](NC(=O)[C@H](CC(N)=O)NC(=O)[C@H](Cc1ccccc1)NC[C@H](CCCCN)NC(=O)[C@H](CC1CCCCC1)NC(=O)[C@H](CC1CCCCC1)NC(=O)[C@@H](N)CC1CCCCC1)C(=O)N[C@@H](CCCCN)C(=O)O [6-Amino-2-(2-{2-[2-(6-amino-2-{2-[2-(2-amino-3-cyclohexyl-propionylamino)-3-cyclohexyl-propionylamino]-3-cyclohexyl-propionylamino}-hexylamino)-3-phenyl-propionylamino]-3-carbamoyl-propionylamino}-3-methyl-pentanoylamino)-hexanoic acid]
0.6	C[C@H](NC[C@H](CCCCN)NC(=O)[C@H](Cc1ccccc1)NC(=O)[C@H](CCCCN)NC(=O)[C@@H](N)CC(=O)O)C(=O)N[C@@H](CC1CCCCC1)C(=O)NCC(=O)N[C@@H](CCCCN)C(=O)O [6-Amino-2-(2-{2-[2-(6-amino-2-{2-[6-amino-2-(2-amino-3-carboxy-propionylamino)-hexanoylamino]-3-phenyl-propionylamino}-hexylamino)-propionylamino]-3-cyclohexyl-propionylamino}-acetylamino)-hexanoic acid]
8.8	NCCCC[C@H](NC(=O)[C@H](CC(N)=O)NC(=O)[C@H](Cc1ccccc1)NC(=O)[C@H](CO)NC[C@H](CCCN=C(N)N)NC(=O)[C@H](Cc1ccccc1)NC(=O)[C@H](CCCCN)NC(=O)[C@@H]1CCCN1)C(=O)O [6-Amino-2-[2-(2-{2-[2-(2-{6-amino-2-[(pyrrolidine-2-carbonyl)-amino]-hexanoylamino}-3-phenyl-propionylamino)-5-guanidino-pentylamino]-3-hydroxy-propionylamino}-3-phenyl-propionylamino)-3-carbamoyl-propionylamino]-hexanoic acid]
1	CC(C)C[C@H](NC[C@H](Cc1ccccc1)NC(=O)[C@H](Cc1cnc[nH]1)NC(=O)[C@H](CCCCN)NC(=O)[C@@H](N)CC(=O)O)C(=O)N[C@@H](CC(C)C)C(=O)N[C@H](C(=O)N[C@@H](CCCCN)C(=O)O)C(C)C [6-Amino-2-{2-[2-(2-{2-[2-[6-amino-2-(2-amino-3-carboxy-propionylamino)-hexanoylamino]-3-(3H-imidazol-4-yl)-propionylamino]-3-phenyl-propylamino}-4-methyl-pentanoylamino)-4-methyl-pentanoylamino]-3-methyl-butyrylamino}-hexanoic acid]
1.1	CSCC[C@H](NC(=O)[C@H](Cc1ccc(O)cc1)NC[C@H](Cc1ccccc1)NC(=O)[C@H](CC(C)C)NC(=O)[C@H](C)NC(=O)[C@@H](N)CC1CCCCC1)C(=O)N[C@@H](Cc1ccc(O)cc1)C(=O)N[C@@H](Cc1ccc(O)cc1)C(=O)O [ChaALF(CH2NH)YMYY]
44.7	H-AIWYWAAV-OH [2-(2-{2-[2-[2-[2-[2-(2-Amino-propionylamino)-3-methyl-pentanoylamino]-3-(1H-indol-3-yl)-propionylamino]-3-(4-hydroxy-phenyl)-propionylamino]-3-(1H-indol-3-yl)-propionylamino]-propionylamino}-propionylamino)-3-methyl-butyric acid]
